Laboratory results taken from patent publication US10668039B2, “Methods for treatment of adenoid cystic carcinoma” (THE CHILDREN'S MEDICAL CENTER CORPORATION, priority 2016, dated 2020).

Legend:
ACCx6 = assay: ACC xenotransplantation trial, ACCx6; format: in vivo, nude mice; conditions: oral 0.2 mL flat dose: ATRA 4 mg/mL, isotretinoin 30 mg/mL, fenretinide 40 mg/mL
Protocol: (§1) Xenograft experiments: To generate ACC xenografts, 1×10^6 viable ACC cells were injected into the flank of female nude (Foxn1nu) mice for in vivo drug testing of ACCx6, ACCx9, and ACCx11 lines. Once tumors were visible, the mice were randomized to receive vehicle control or drug until reaching a […] tumor volume of 1,000 mm3. The mice in each group were treated with an oral flat dose five times weekly (po qdx5) for four cycles (two days off between cycles). The exact dosing was determined based on an initial MTD tolerability study and published literature reports. Five mice per group were treated for ACCx6 and ACCx9, and four mice per group were treated for ACCx11 (five mice in the control ACCx11 group), and the tumor volumes were quantified. Mice were treated with a flat dose of 0.2 mL orally of: 30 mg/mL isotretinoin; 40 mg/mL fenretinide; 4 mg/mL ATRA for ACCx6 and ACCx11 or 3 mg/mL ATRA for ACCx9. Mouse procedures used in this study were approved by the IACUC at South Texas Accelerated Research Therapeutics (San Antonio, Tex.).
Primagraft experiments: For in vivo drug testing, ACC tumor fragments from host animals were implanted subcutaneously into the flank of nude mice (CRL: ATH/NU). Once tumors reached 125-250 mm3, mice were randomized to receive vehicle or drug diluted in 10:90 DMSO:10% hydroxypropyl-beta-cyclodextrin orally until controls reached a tumor volume endpoint of 1-2 cm3 (4-9 mice per group: x5M1 and x6, 4 treated vs. 9 vehicle controls; x9, 4 treated vs. 5 vehicle controls; x11, 5 treated vs. 8 vehicle controls). Mice were treated with ATRA (ACC x6 and x11: 4 mg/mL, 0.2 mL flat dose; ACC×9: 3 mg/mL, 0.2 mL flat dose) or isotretinoin (30 mg/mL, 0.2 mL flat dose). Tumor growth was monitored and mice weighed twice weekly and studies ended when final group reached tumor volume endpoint. No statistical methods were employed to determine the sample size, and no blinding of investigators was performed. […]

c-myb = assay: qPCR of sorted c-myb:GFP zebrafish embryo cells; format: cell-based; conditions: sorted c-myb:GFP cells from 72 hpf embryos, 1 μM, 6 hours
Protocol: RA dose response experiments were plated similarly in LDF medium with the appropriate RA concentration. Sorted c-myb:GFP+ cells were collected from 72 hpf transgenic embryos that were homogenized: embryos were finely chopped and dissociated using Liberase (Roche), cell suspensions were filtered, and 58,000 GFP+ live cells were collected using a FACS Aria cell sorter (BD Biosciences). Cells were cultured for 6 hours in LDF medium, and then collected for qPCR.
Quantitative PCR: Total RNA from cells was extracted using Qiagen RNeasy Mini Kit, and random primed cDNA was generated (Invitrogen, SuperScript III First-Strand Synthesis System). The SsoFast EvaGreen (Biorad) method was used to quantify cDNAs of interest, which are represented as the fold change in transcript level. The amount of cDNA starting material for each sample was normalized in relation to species-specific β-actin expression for zebrafish samples, and both gapdh and β-actin expression for human samples. The primer sequences used were zebrafish myb: forward, 5′-[…]-3′ (SEQ ID No:1), reverse, 5′-[…]-3′ (SEQ ID No:2); zebrafish β-actin: forward, 5′-[…]-3′ (SEQ ID No:3), reverse, 5′-[…]-3′ (SEQ ID No:4); human myb: forward, 5′-[…]-3′ (SEQ ID No:5), reverse, 5′-[…]-3′ (SEQ ID No:6); human gapdh: forward, 5′-[…]-3′ (SEQ ID No:7), reverse, 5′-[…]-3′ (SEQ ID No:8); human β-actin: forward, 5′-[…]-3′ (SEQ ID No:9), reverse, 5′-[…]-3′ (SEQ ID No:10).
Zebrafish quantitative PCR analysis: Stage-matched 72 hpf c-myb:GFP transgenic embryos were finely chopped and dissociated using Liberase (Roche). GFP+ cells were collected using a FACS Aria cell sorter (BD Biosciences). Sorted cells were resuspended in zebrafish blastomere media and plated with 1 μM retinoic acid agonists for 6 hours. Cells were then collected and RNA was isolated using the RNeasy Micro Plus Kit (Qiagen) as per the manufacturer's instructions. cDNA was synthesized using the SuperScript III Kit (Life Technologies). Quantitative PCR was performed in triplicate on a BioRad iQ5 real-time PCR machine using Ssofast EvaGreen Supermix (BioRad). Samples were normalized to β-actin gene. Zebrafish primers used (forward and reverse respectively): actin, 5′-[…]-3′ (SEQ ID No:3) and 5′-[…] -3′ (SEQ ID No:4); c-myb, 5′-[…]-3′ (SEQ ID No:1) and 5′-[…]-3′ (SEQ ID No:2); mpx, 5′-[…]-3′ (SEQ ID No:11) and 5′-[…]-3′ (SEQ ID No:12); GFP, 5′-[…]-3′ (SEQ ID No:13) and 5′-[…]-3′ (SEQ ID No:14).

ACCx11 = assay: ACC xenotransplantation trial, ACCx11; format: in vivo, nude mice; conditions: for tumor growth inhibition ACCx11: oral 0.2 mL flat dose: ATRA 4 mg/mL, isotretinoin 30 mg/mL, fenretinide 40 mg/mL
Protocol: as §1
Primagraft experiments: For in vivo drug testing, ACC tumor fragments from host animals were implanted subcutaneously into the flank of nude mice (CRL: ATH/NU). Once tumors reached 125-250 mm3, mice were randomized to receive vehicle or drug diluted in 10:90 DMSO:10% hydroxypropyl-beta-cyclodextrin orally until controls reached a tumor volume endpoint of 1-2 cm3 (4-9 mice per group: x5M1 and x6, 4 treated vs. 9 vehicle controls; x9, 4 treated vs. 5 vehicle controls; x11, 5 treated vs. 8 vehicle controls). Mice were treated with ATRA (ACC x6 and x11: 4 mg/mL, 0.2 mL flat dose; ACC×9: 3 mg/mL, 0.2 mL flat dose) or isotretinoin (30 mg/mL, 0.2 mL flat dose). Tumor growth was monitored and mice weighed twice weekly and studies ended when final group reached tumor volume endpoint. No statistical methods were employed to determine the sample size, and no blinding of investigators was performed. After long-term tumor growth inhibition studies were completed, the ATRA treated mice stopped receiving treatment and were maintained longer as indicated to monitor tumor maintenance after treatment cessation. For long-term tumor growth inhibition studies, ACC x6, x9, and x11 models were used and primagrafts collected at the completion of the study. Short-term kinetics studies were also undertaken with ACC x9 and x5M1 primagrafts involving 3 day ATRA treatments. All animal procedures used in this study were approved by the IACUC at START, San Antonio, Tex.

Structure (SMILES) | tumor growth inhibition ACCx6 (ACCx6) | endogenous myb levels by qPCR (c-myb) | tumor growth inhibition ACCx11 (ACCx11) | tumor growth inhibition after discontinuation of treatment, ACC x11 (ACCx11; after approximately 28 days of treatment)
CC1=C(/C=C/C(C)=C/C=C/C(C)=C\C(=O)O)C(C)(C)CCC1 [Isotretinoin, 13-cis-retinoic acid] | 69% | significantly downregulate | 94% | 
CC(C=CC1=C(C)CCCC1(C)C)=CC=C/C(C)=C/C(=O)O [ATRA, (E)-3,7-dimethyl-9-(2,6,6-trimethyl-1-cyclo-hexen-1-yl)-2,4,6,8-nonatetraenoic acid] | 81% | significantly downregulate | 105% | sustained
CC1=C(/C=C/C(C)=C/C=C/C(C)=C/C(=O)Nc2ccc(O)cc2)C(C)(C)CCC1 [Fenretinide, retinoic acid p-hydroxyanilide] | 60% | significantly downregulate | 41% | 
